Read-outs that look alike come from different tables or passages of the source.
Experiments:
[1] = In vitro blood-brain barrier permeability (PBEC/rat astrocyte co-culture); details: pH 7.4, In Vitro Measured Papp, mean ± SD (n = 3)
Description: (§1) Permeability studies were performed after 2 days of co-culture with rat astrocytes. […] In each filter used for transport, a paracellular marker was included as an internal control to monitor the integrity of the cell monolayer. The day of the experiment, culture medium was removed and cells on Transwell inserts were pre-incubated for 30 min with Hank's Balanced Salt Solution (HBSS) containing 20 mM Hepes pH 7.4 and 0.1% bovine serum albumin (BSA). […] Aliquots from the basal compartment were taken after 1 h; fluorescence was measured using a fluorescence detector. The permeability coefficient of the total system was calculated as follows: P[cm/s]=Vd×ΔMr/A×Md×Δt Where:
(§2) To correct for the contribution of the porous polycarbonate membrane of the filter in the absence of cells, the permeability was also determined for the cell-free system. Contribution of the endothelial cell monolayer to the permeability of the cell and filter system was determined by the following equation: 1/Pe=1/Pt-1/Pf Where the total permeability of the system is denoted as Pt, the cell-free filter as Pf, and the endothelial cell layer alone as Pe. The total resistance of the system towards passage of a substance is composed of 2 resistances in series: that of the cell monolayer and that of the filter; permeability is estimated as 1/resistance [27]. […] Mass balance was determined based on the amount of compound recovered in the donor and receiver chamber at the end of the assay relative to the amount added to the donor chamber at time 0.

[2] = tested on: porcine brain endothelial cell (PBEC) co-culture model; experiment: as above; details: in words
Description: as §1, §2

[3] = Microdialysis (striatal dialysate and blood) in cynomolgus monkeys; assay type: in vivo, cynomolgus monkey; details: cynomolgus monkey, in vivo, po
Description: Monkeys were sedated by intramuscular (i.m.) ketamine administration and cannulated for intravenous (i.v.) administration of propofol infusion (initiated 15–30 min after ketamine administration). Subsequently, the animals were placed in an magnetic resonance imaging (MRI)-compatible stereotaxic frame (Kopf Model 1430), and T1 and T2 weighted scans (for up to 1 h) were carried out with a 7 cm loop-coil in a 3 Tesla Siemens Magnetom TIM Trio (Germany). To derive the coordinates, Digital Imaging and Communications in Medicine (DICOM) files were transformed into Neuroimaging Informatics Technology Initiative (NIFTI) format. NIFTI-compatible images were loaded into 3D viewer software (MRIcro version 1.40 build 1), and the stereotaxic zero in the MRI image was determined using the coordinates of the earbar-tips. Coordinates for placement of the guide cannulas were calculated for every individual animal by use of MRI images and a primate brain map.
On a separate day, microdialysis guide cannulas were placed bilaterally in the head of the caudate nucleus using the same MRI compatible stereotaxic frame (Kopf Model 1430), under isoflurane anesthesia. Prior to surgery, animals were administered ketamine (i.m.), and subsequently anesthetized with isoflurane (0.8%-2% inhalation) while artificially ventilated with O2/N2O (40/60) at 60 to 80 mL tidal volume via an intratracheal tube. During surgery, subcutaneous or i.v. fluids were provided. Animals were allowed to recover from the anesthesia in a warmed environment, single housed, and given at a minimum a 14-day post-surgery recovery time. The following medications were administered to reduce pain and inflammation, as well as reduce the chance of post-operative infection: meloxicam (Metacam 5 mg/mL, 0.2 mg/kg, buprenorphine (Temgesic, 0.3 mg/mL, 0.0038 mg/kg), enrofloxacine (25 mg/mL, 5 mg/kg), and amoxicillin (150 mg/mL, 15 mg/kg).
Samples were stored in -80°C.
From monkeys only, whole blood samples (0.5 mL) were collected from the femoral vein at -1, 0, 1, 2, and 3 h relative to dosing and transferred immediately to chilled polypropylene 15 mL vials containing 2500 μL of 0.15% formic acid in acetonitrile, mixed, and placed on dry ice. After the collections samples were stored at -80°C.
Sample preparation for monkey dialysate and blood samples: Concentrations of fosmetpantotenate (D1 and D2), PA, and PPA in monkey dialysate and blood samples were determined by Brains On-Line LLC. […] For dialysate quantitation, standards and QC samples were prepared in control dialysate (0.2% BSA in aCSF: water: 0.04% ascorbic acid in aqueous 0.02 M formic acid [4.5:24:6 v/v/v]). Standards, QC samples, and dialysate (10 μL) were mixed with 6 μL 20 mM formic acid and 0.01% ascorbic acid in water containing internal standard (10 ng/mL of ^15N/^13C3-PA) and analyzed by LC-MS/MS. Blood standards and QC samples were prepared in supernatant from control monkey blood which had been treated with 5 volumes of 0.15% formic acid in acetonitrile. Endogenous levels >LLOQ were detected for PA in control quenched blood only and quantitated at 56.56 nM based on calibration standard prepared in solvent. To compensate for endogenous PA in the calibration curve control blood, PA standard curve concentrations were spiked plus endogenous levels. Sample work-up of blood involved diluting 10 μL supernatant from study blood samples, standards, and QC samples with 90 μL of 20 mM formic acid and 0.01% ascorbic acid in water, then treating with 4 μL 20 mM formic acid and 0.01% ascorbic acid in water containing internal standard (10 ng/mL of ^15N/^13C3-PA) and analyzing by LC-MS/MS.

[4] = tested on: porcine brain endothelial cell (PBEC) co-culture model
Description: as §1, §2

[5] = male, C57Bl6, mouse, in vivo, po, 700 mg/kg
Description: (§3) Mice were anesthetized using isoflurane (2%, 800 mL/min O2).
(§4) For oral dosing experiments, MetaQuant microdialysis probes (regenerated cellulose membrane, BrainLink, the Netherlands) were inserted into the striatum (3 mm exposed surface). Coordinates for the tips of the probes for mice were anterior-posterior (AP) = +0.8 mm from bregma, lateral (L) = -1.7 mm from midline, and ventral (V) = -4.0 mm from dura, the toothbar set at 0 mm.
(§5) Microdialysis animal dosing and sample collection: Adult non-fasted male C57Bl6 mice (20–29 g; Harlan Laboratories, Livermore, CA), and Macaca fascicularis (4–9 kg, 3–6 yr old) were used for the experiments. For oral dosing, fosmetpantotenate was formulated as a solution in 20% hydroxypropyl-beta-cyclodextrin in 50 mM citrate buffer in water pH 5.0 and administered using a dose volume of 10 mL/kg. Mice (N = 6 serially sampled) received fosmetpantotenate as a single oral dose at 700 mg/kg and monkeys received a single oral dose at either 100 mg/kg (N = 4 serially sampled) or 300 mg/kg (N = 2 serially sampled).
(§6) Microdialysis: On the morning of the microdialysis experiment, a MetaQuant probe was inserted into the guide shaft targeting the head of the caudate nucleus and perfused at a rate of 0.15 μL/min aCSF containing 0.2% (w/v) BSA, with a carrier flow of 0.8 μL/min of ultrapure water.
(§7) A single 30 min pre-dose basal dialysate sample was collected from mice over -0.5 to 0 h, and three 30 min basal samples from monkeys over -1.5 to 0 h. Fosmetpantotenate was administered at t = 0, and 30 min dialysate samples were collected for an additional 4 h for mice and 3 h for monkeys.
(§8) Sample preparation for mouse dialysate samples: Concentrations of fosmetpantotenate, PA, and PPA in mouse dialysate were determined by Nextcea, Inc, Woburn, MA, using LC-MS/MS. Standard curves and QC samples containing fosmetpantotenate (D1 and D2) and the surrogate analytes for PA and PPA (^15N/^13C3-PA and ^15N/^13C3-PPA) were prepared fresh in 0.1% formic acid in water. Frozen study mouse dialysate samples were thawed in ice/water bath. Standards, QC samples, and thawed study dialysate samples (20 μL) were mixed with 20 μL 0.1% formic acid in water containing internal standard (50 ng/mL of ^15N/^13C3-fosmetpantotenate) and analyzed by LC-MS/MS.
(§9) LC-MS/MS analysis for mouse dialysate samples: Concentrations of fosmetpantotenate, PA, and PPA in dialysate from mice were determined by using LC-MS/MS conditions described for blood PK analysis by Nextcea, except dialysate samples were analyzed using an ACIEX API 5000 and flow rate was increased to 0.6 mL/min.
(§10) Quantitation of in vivo samples: Peak areas were integrated using Analyst software (AB Sciex, Concord, Ontario, Canada). Calibration curves for all blood samples from mouse and rat PK studies and mouse dialysate samples were prepared by plotting the analyte to internal standard (^15N/^13C3-fosmetpantotenate) peak area ratio vs concentration.

in vivo [6] = details: male, C57Bl6, mouse, po, 700 mg/kg
Description: as §3, §4, §5, §6, §7, §8, §9, §10

[7] = male, Sprague-Dawley, rat, in vivo
Description: (§11) The whole blood samples (0.5 mL) were collected into syringes that were prefilled with 2.5 mL of ice-cold 0.1% formic acid in acetonitrile. The volume ratio of the whole blood to 0.1% formic acid in acetonitrile was 1/5 (v/v). Samples were frozen (-70°C) until analyzed by LC-MS/MS.
(§12) Standard curves and quality control (QC) samples were prepared fresh on the day of analysis by serial dilution of the standard mixture in quenched whole blood (1 part of blood to 5 parts of 0.1% formic acid in acetonitrile) and centrifuged. […] The frozen study samples were thawed in an ice/water bath and centrifuged. Supernatant (50 μL) from standards, QC samples, and study samples was transferred to a 96-well plate and dried completely under nitrogen. The dried residues were reconstituted with 100 μL of 0.1% formic acid in water containing internal standard (5 ng/mL of ^15N/^13C3-RE-024-02) and analyzed by LC-MS/MS.
(§13) LC-MS/MS analysis for blood pharmacokinetic samples: Samples were analyzed using an Agilent 1100 binary pump (Agilent Technologies, Santa Clara, CA, USA), connected to an AB Sciex API 6500 mass spectrometer (SCIEX, Framingham, MA, USA). An electrospray ionization source was used, scanning in the positive mode. […] The chromatography column was a Varian Metasil AQ 120–5 C18 column, 5 μm, 50 x 2.00 mm (Part No. A0530050X020) at ambient temperature, with a 0.5 mL/min flow rate and a 20 μL injection volume. Mobile phase (A) consisted of 0.1% formic acid in water; while mobile phase (B) consisted of 0.1% formic acid in acetonitrile:water (9:1, v/v).
(§14) Quantitation of in vivo samples: Peak areas were integrated using Analyst software (AB Sciex, Concord, Ontario, Canada). […] Calibration standards (at a minimum 7 per curve) were fit by linear regression with (1/x^2) weighting. QC samples were used (triplicate) at 3 concentrations for all tandem mass spectrometry (MS/MS) runs.
(§15) Pharmacokinetic calculations: PK analysis was performed using Phoenix WinNonlin®, Build 6.3.0.395 (Certara, Princeton, NJ, USA) using a non-compartmental model (PO dose = model 200 for extravascular dosing). […] Post-dose concentrations below the limit of quantitation (BLQ) were omitted from calculation.

in vivo [8] = details: male, Sprague-Dawley, rat, po
Description: as §11, §12, §13, §14, §15

in vivo [9] = details: male, CD-1, mouse, po
[10] = Pharmacokinetics in whole blood, CD-1 mice; details: male, CD-1, mouse, whole blood, oral, 100 mg/kg, Conc., blood; fosmetpantotenate 100 mg/kg PO; 2 hr; individual animals
in vivo [11] = details: cynomolgus monkey, po, 300 mg/kg
[12] = male, CD-1, mouse, in vivo
[13] = PA Concentration in Mouse Striatal Dialysate (Corrected for Dilution)
[14] = PA Concentration in Mouse Striatal Dialysate (Corrected for Dilution), Mean

For `C=CCN1CC[C@]23c4c5ccc(O)c4O[C@H]2C(=O)CC[C@@]3(O)[C@H]1C5` [Naloxone], the Papp at 1 h [1] was 42.3 ± 11 ×10⁻⁶ cm/s and the “blood-brain barrier permeability classification” value [2] was “high permeability range”.
`CC(C)(CO)[C@@H](O)C(=O)NCCC(=O)O` [PA, pantothenate] showed an AUC ([3]; 300 mg/kg) of 2.17 µM·h, a Cmax ([3]; 300 mg/kg) of 1300 nM and an AUC ([3]; cynomolgus, 100 mg/kg) of 0.467 ± 0.152 µM·h. The Cmax ([3]; cynomolgus, 100 mg/kg) was 255 ± 70 nM, the AUC ([3]; cynomolgus, 300 mg/kg) was 9.34 µM·h and the Cmax ([3]; cynomolgus, 300 mg/kg) was 4270 nM. The “blood-brain barrier permeability classification” value [4] was “permeable”, the “PA Concentration in Mouse Striatal Dialysate (Corrected for Dilution), Mean” value (“PA Concentration” for short) ([5]; 1.5 h) was 61.5 nM and the “PA Concentration” value ([5]; 2 h) was 80.7 nM. The “PA Concentration” value ([5]; 2.5 h) was 87.6 nM, the “PA Concentration” value ([5]; 3 h) was 95.3 nM and the AUC (in vivo [6]) was 0.154 ± 0.105 µM·h. It also gave a Cmax (in vivo [6]; PA Cmax) of 88 ± 74.3 nM, a concentration at 0 h (in vivo [6]; [13]) of 52.8 nM and a concentration at 0.5 h (in vivo [6]; [13]) of 65.1 nM. For the same compound, the concentration at 1 h (in vivo [6]; [13]) was 77.7 nM, the concentration at 0 h (in vivo [6]; [14]) was 50.7 nM and the concentration at 0.5 h (in vivo [6]; [14]) was 57.7 nM. It also gave a concentration at 1 h (in vivo [6]; [14]) of 75.6 nM, a concentration at 3.5 h (in vivo [6]; [14]) of 115 nM and a concentration at 4 h (in vivo [6]; [14]) of 128 nM. For the same compound, the Cmax (in vivo [6]; total PA Cmax) was 130 nM, the “fold increase in AUC as dose increased from 100 to 700 mg/kg” value [7] was 4.6 fold and the “fold increase in Cmax as dose increased from 100 to 700 mg/kg” value [7] was 5.9 fold. For the same compound, the Papp at 1 h (in vitro; pH 7.4, In Vitro Measured Papp) was 4.2 ± 1.3 ×10⁻⁶ cm/s, the Papp at 60 min (in vitro; pig, pH 7.4, Papp) was 5.6 ×10⁻⁶ cm/s and the AUC (in vivo [8]; 100 mg/kg) was 8.68 µM·h. For the same compound, the Cmax (in vivo [8]; 100 mg/kg) was 1340 nM, the AUC (in vivo [8]; 300 mg/kg) was 32.5 µM·h and the Cmax (in vivo [8]; 300 mg/kg) was 4750 nM. It also gave an AUC (in vivo [8]; 700 mg/kg) of 40.1 µM·h, a Cmax (in vivo [8]; 700 mg/kg) of 7900 nM and an AUC (in vivo [9]; 100 mg/kg) of 3.4 µM·h. The Cmax (in vivo [9]; 100 mg/kg) was 683 nM, the AUC (in vivo [9]; 300 mg/kg) was 5.76 µM·h and the Cmax (in vivo [9]; 300 mg/kg) was 771 nM. The AUC (in vivo [9]; 700 mg/kg) was 10.5 µM·h, the Cmax (in vivo [9]; 700 mg/kg) was 1610 nM and the concentration at 2 h [10] was 282 nM. The AUC (in vivo [11]) was 3.35 µM·h, the Cmax (in vivo [11]) was 589 nM and the “fold increase in AUC as dose increased from 100 to 700 mg/kg” value [12] was 3.1 fold. The “fold increase in Cmax as dose increased from 100 to 700 mg/kg” value [12] was 2.4 fold.
